From patent US8101760B2, “Glucocorticoid receptor modulator and methods of use” (Eli Lilly and Company, priority 2007, dated 2012) come the findings set out here.

Series [1] has as its target T1, human PR (progesterone receptor) (Homo sapiens, UniProt P06401).
T1 construct: expressed in transfected cells; host or cells: HEK293 (lysate, '293-PR lysate')
T1 sequence (P06401 1-933): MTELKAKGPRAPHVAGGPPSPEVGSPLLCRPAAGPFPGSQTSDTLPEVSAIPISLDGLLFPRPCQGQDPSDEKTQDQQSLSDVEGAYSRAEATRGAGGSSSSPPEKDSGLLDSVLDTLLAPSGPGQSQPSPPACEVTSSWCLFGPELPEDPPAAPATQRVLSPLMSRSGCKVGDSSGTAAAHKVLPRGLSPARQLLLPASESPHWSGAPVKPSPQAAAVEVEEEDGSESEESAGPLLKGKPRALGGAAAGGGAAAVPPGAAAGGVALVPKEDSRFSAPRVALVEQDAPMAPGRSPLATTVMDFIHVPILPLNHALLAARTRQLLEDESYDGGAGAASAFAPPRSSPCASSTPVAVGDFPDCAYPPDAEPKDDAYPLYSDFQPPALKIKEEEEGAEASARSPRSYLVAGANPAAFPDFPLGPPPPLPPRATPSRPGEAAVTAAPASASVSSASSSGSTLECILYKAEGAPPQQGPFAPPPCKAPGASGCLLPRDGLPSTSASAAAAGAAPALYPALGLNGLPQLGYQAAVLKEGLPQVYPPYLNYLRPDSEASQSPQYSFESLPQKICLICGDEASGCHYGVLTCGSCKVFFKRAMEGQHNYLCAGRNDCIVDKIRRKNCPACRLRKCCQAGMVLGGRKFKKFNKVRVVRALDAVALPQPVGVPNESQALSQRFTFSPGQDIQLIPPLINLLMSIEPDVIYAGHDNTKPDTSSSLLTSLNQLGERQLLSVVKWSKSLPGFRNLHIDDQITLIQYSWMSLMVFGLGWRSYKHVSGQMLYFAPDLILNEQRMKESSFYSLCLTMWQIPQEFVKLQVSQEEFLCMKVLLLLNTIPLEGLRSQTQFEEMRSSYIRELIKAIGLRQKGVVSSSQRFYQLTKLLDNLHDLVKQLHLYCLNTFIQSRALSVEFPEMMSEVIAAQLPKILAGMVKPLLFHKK
As to the kind of experiment: Nuclear hormone receptor binding assay, PR. On the procedure:
Cell lysates from human embryonic kidney HEK293 cells overexpressing human GR (glucocorticoid receptor), AR (androgen receptor), MR (mineralocorticoid receptor), or PR (progesterone receptor) are used for receptor-ligand competition binding assays to determine Ki values.
Briefly, steroid receptor competition binding assays are run in a buffer containing 20 mM Hepes buffer (pH=7.6), 0.2 mM EDTA, 75 mM NaCl, 1.5 mM MgCl2, 20% glycerol, 20 mM sodium molybdate, 0.2 mM DTT (dithiothreitol), 20 μg/mL aprotinin and 20 μg/mL leupeptin. Typically, steroid receptor binding assays include radio-labeled ligands, such as 0.3 nM [^3H]-dexamethasone for GR binding, 0.36 nM [^3H]-methyltrienolone for AR binding, 0.25 nM [^3H]-aldosterone for MR binding, and 0.29 nM [^3H]-methyltrienolone for PR binding, and either 20 μg 293-GR lysate, 22 μg 293-AR lysate, 20 μg 293-MR lysate or 40 μg 293-PR lysate per well. Assays are typically run in 96-well format. Competing test compounds are added at various concentrations ranging from about 0.01 nM to 10 μM. Non-specific binding is determined in the presence of 500 nM dexamethasone for GR binding, 500 nM aldosterone for MR binding, or 500 nM methyltrienolone for AR and PR binding. […] After an incubation of 2 hours, plates are read in a Wallac Microbeta counter. […]

In series [2] the test system is IL-1β-stimulated IL-6 production in human skin fibroblast CCD-39SK cells. As to the kind of experiment: GR-mediated transrepression: IL-1β-stimulated IL-6 production in CCD-39SK cells. Type of series: cell-based. Particulars: mean of 22 determinations, read-out: EC50, inhibition of IL-6 expression. How it is done: Glucocorticoid Receptor-Mediated Transrepression Assays: 1. IL-1β-Stimulated IL-6 Production in Human Skin Fibroblast CCD-39SK Cells:
Briefly, human skin fibroblast CCD-39SK cells (20,000 cells/well), obtained from the American Type Culture Collection (ATCC), Manassas, Va. U.S.A. (ATCC Catalog #CRL-1501) are seeded in 96-well plates in SF-GM (MEM) medium (ATCC Catalog #30-20030), supplemented with 10% fetal bovine serum (FBS), 100 U/mL penicillin, 100 μg/mL streptomycin and 2 mmol/L L-glutamine. Cells are maintained in a humidified chamber with 5% CO2 at 37° C. Test compounds are added to the wells in various concentrations ranging from a final concentration of about 4.65 pM to 4.64 μM. 0.1 μM of dexamethasone is used as a positive control. 1-hour post treatment with test compound, IL-1β is added at final concentration of 1 ng/mL and the reaction mixture is incubated overnight. IL-6 concentrations are measured with an ELISA Kit (R&D Systems, Inc., Minneapolis, Minn., U.S.A.) using standard techniques. Briefly, take 10 μL of supernatant from each well and add 90 μL of assay buffer. IL-6 concentrations are quantified by reading absorbance at 450 nm. A standard curve of absorbance versus IL-6 concentration is constructed and used to determine the concentration of IL-6 in experimental samples.

The nature of series [3]: In vivo studies of genotoxic potential.

As to `CC/C(=C1\c2ccc(Cl)cc2OCc2ncccc21)c1cccc(NS(C)(=O)=O)c1` [Compound (I), (E)-N-{3-[1-(8-Chloro-11H-10-oxa-1-aza-dibenzo[a,d]cyclohepten-5-ylidene)-propyl]-phenyl}-methanesulfonamide], the Ki in series [1] (HEK293 cell lysate expressing human PR, [3H]-methyltrienolone, mean of 5 determinations) stood at 31 nM. In addition, in series [1] (binding selectivity GR vs PR), the “greater affinity for GR relative to PR” value is reported as at least 30 fold. In series [2], the EC50 was around 4.8 nM. Moreover, the genotoxic potential entry in series [3] is on record as “non-genotoxic”.
